Test results from PubChem BioAssay AID248 (DTP/NCI, 2004).
“And” between values parts separate entries of the source, which are not always exact repeats. Identical values can stand only once. Inconclusive results and toxic doses are left out.

System: L1210 leukemia ip in BDF1 mice, survival T/C
Experiment: NCI In Vivo Anticancer Drug Screen. Data for tumor model L1210 Leukemia (intraperitoneal) in B6D2F1 (BDF1) mice
Details: endpoint: mean survival time, higher = longer survival
How it was run: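 Antitumor effect is assessed in tumor-bearing animals. Survival in the compound arm is compared with a vehicle-dosed control arm and expressed as their quotient.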

SMILES: O=NN(CCF)C(=O)NC1CCCCC1
- T/C (dose: 0.33 mg/kg/injection, schedule: Q#B X003 (ip), vehicle: other): 109 % of control
- T/C (dose: 0.66 mg/kg/injection, schedule: Q#B X003 (ip), vehicle: other): 119 % of control
- T/C (dose: 0.93 mg/kg/injection, schedule: Q01DX001 (ip), vehicle: carboxymethylcellulose (CMC)): 102 % of control
- T/C (dose: 1.33 mg/kg/injection, schedule: Q#B X003 (ip), vehicle: other): 121 % of control
- T/C (dose: 1.56 mg/kg/injection, schedule: Q03HX032 (ip), vehicle: carboxymethylcellulose (CMC)): 111 % of control
- T/C (dose: 1.87 mg/kg/injection, schedule: Q01DX001 (ip), vehicle: carboxymethylcellulose (CMC)): 102 % of control
- T/C (dose: 2.97 mg/kg/injection, schedule: Q01DX015 (ip), vehicle: other): 96 % of control and 117 % of control
- T/C (dose: 3.12 mg/kg/injection, schedule: Q01DX001 (sc), vehicle: other): 122 % of control
- T/C (dose: 3.12 mg/kg/injection, schedule: Q03HX008 (ip), vehicle: carboxymethylcellulose (CMC)): 188 % of control
- T/C (dose: 3.12 mg/kg/injection, schedule: Q03HX032 (ip), vehicle: carboxymethylcellulose (CMC)): 416 % of control
- T/C (dose: 3.12 mg/kg/injection, schedule: Q03HX032 (oral), vehicle: carboxymethylcellulose (CMC)): 177 % of control
- T/C (dose: 3.75 mg/kg/injection, schedule: Q01DX001 (ip), vehicle: carboxymethylcellulose (CMC)): 112 % of control
- T/C (dose: 5.0 mg/kg/injection, schedule: Q01DX001 (ip), vehicle: carboxymethylcellulose (CMC)): 108 % of control
- T/C (dose: 6.0 mg/kg/injection, schedule: Q02DX008 (ip), vehicle: other): 157 % of control and 160 % of control
- T/C (dose: 6.25 mg/kg/injection, schedule: Q01DX001 (sc), vehicle: other): 117 % of control
- T/C (dose: 6.25 mg/kg/injection, schedule: Q01DX013 (ip), vehicle: carboxymethylcellulose (CMC)): 122 % of control
- T/C (dose: 6.25 mg/kg/injection, schedule: Q03HX008 (oral), vehicle: carboxymethylcellulose (CMC)): 605 % of control
- T/C (dose: 6.25 mg/kg/injection, schedule: Q03HX032 (oral), vehicle: carboxymethylcellulose (CMC)): 288 % of control
- T/C (dose: 6.25 mg/kg/injection, schedule: Q## X006 (ip), vehicle: carboxymethylcellulose (CMC)): 111 % of control
- T/C (dose: 6.25 mg/kg/injection, schedule: Q## X006 (oral), vehicle: carboxymethylcellulose (CMC)): 305 % of control
- T/C (dose: 6.75 mg/kg/injection, schedule: Q01DX015 (ip), vehicle: other): 448 % of control and 489 % of control
- T/C (dose: 9.0 mg/kg/injection, schedule: Q02DX008 (ip), vehicle: other): 345 % of control and 397 % of control
- T/C (dose: 10.0 mg/kg/injection, schedule: Q01DX015 (ip), vehicle: other): 424 % of control and 524 % of control
- T/C (dose: 12.0 mg/kg/injection, schedule: Q## X004 (ip), vehicle: other): 370 % of control and 608 % of control
- T/C (dose: 12.5 mg/kg/injection, schedule: Q01DX001 (ip), vehicle: carboxymethylcellulose (CMC)): 183 % of control
- T/C (dose: 12.5 mg/kg/injection, schedule: Q01DX001 (sc), vehicle: other): 157 % of control
- T/C (dose: 12.5 mg/kg/injection, schedule: Q01DX013 (ip), vehicle: carboxymethylcellulose (CMC)): 183 % of control
- T/C (dose: 12.5 mg/kg/injection, schedule: Q03HX032 (oral), vehicle: carboxymethylcellulose (CMC)): 255 % of control
- T/C (dose: 12.5 mg/kg/injection, schedule: Q## X006 (ip), vehicle: carboxymethylcellulose (CMC)): 155 % of control
- T/C (dose: 13.5 mg/kg/injection, schedule: Q01DX001 (ip), vehicle: other): 187 % of control
- T/C (dose: 13.5 mg/kg/injection, schedule: Q01DX001 (oral), vehicle: other): 178 % of control and 183 % of control
- T/C (dose: 13.5 mg/kg/injection, schedule: Q02DX008 (ip), vehicle: other): 456 % of control and 470 % of control
- T/C (dose: 13.5 mg/kg/injection, schedule: Q## X001 (ip), vehicle: other): 247 % of control
- T/C (dose: 13.5 mg/kg/injection, schedule: Q## X001 (oral), vehicle: other): 253 % of control
- T/C (dose: 14.0 mg/kg/injection, schedule: Q## X032 (ip), vehicle: other): 341 % of control
- T/C (dose: 15.0 mg/kg/injection, schedule: Q01DX001 (ip), vehicle: carboxymethylcellulose (CMC)): 174 % of control
- T/C (dose: 15.0 mg/kg/injection, schedule: Q01DX015 (ip), vehicle: other): 158 % of control and 438 % of control
- T/C (dose: 16.2 mg/kg/injection, schedule: Q01DX001 (ip), vehicle: other): 314 % of control
- T/C (dose: 18.0 mg/kg/injection, schedule: Q## X004 (ip), vehicle: other): 601 % of control and 682 % of control
- T/C (dose: 20.0 mg/kg/injection, schedule: Q01DX001 (ip), vehicle: carboxymethylcellulose (CMC)): 250 % of control
- T/C (dose: 20.0 mg/kg/injection, schedule: Q02DX008 (ip), vehicle: other): 380 % of control and 649 % of control
- T/C (dose: 22.0 mg/kg/injection, schedule: Q## X032 (ip), vehicle: other): 240 % of control
- T/C (dose: 23.0 mg/kg/injection, schedule: Q01DX001 (ip), vehicle: other): 238 % of control
- T/C (dose: 25.0 mg/kg/injection, schedule: Q01DX001 (ip), vehicle: carboxymethylcellulose (CMC)): 192 % of control
- T/C (dose: 25.0 mg/kg/injection, schedule: Q01DX001 (oral), vehicle: carboxymethylcellulose (CMC)): 616 % of control and 733 % of control
- T/C (dose: 25.0 mg/kg/injection, schedule: Q01DX001 (sc), vehicle: carboxymethylcellulose (CMC)): 216 % of control
- T/C (dose: 25.0 mg/kg/injection, schedule: Q01DX001 (sc), vehicle: other): 317 % of control
- T/C (dose: 25.0 mg/kg/injection, schedule: Q01DX005 (oral), vehicle: carboxymethylcellulose (CMC)): 344 % of control
- T/C (dose: 25.0 mg/kg/injection, schedule: Q## X006 (ip), vehicle: carboxymethylcellulose (CMC)): 733 % of control
- T/C (dose: 25.0 mg/kg/injection, schedule: Q## X006 (oral), vehicle: carboxymethylcellulose (CMC)): 355 % of control
- T/C (dose: 27.0 mg/kg/injection, schedule: Q01DX001 (ip), vehicle: other): 241 % of control and 302 % of control
- T/C (dose: 27.0 mg/kg/injection, schedule: Q01DX001 (oral), vehicle: other): 264 % of control and 289 % of control
- T/C (dose: 27.0 mg/kg/injection, schedule: Q## X001 (ip), vehicle: other): 447 % of control
- T/C (dose: 27.0 mg/kg/injection, schedule: Q## X001 (oral), vehicle: other): 280 % of control and 426 % of control
- T/C (dose: 27.0 mg/kg/injection, schedule: Q## X004 (ip), vehicle: other): 412 % of control and 594 % of control
- T/C (dose: 30.0 mg/kg/injection, schedule: Q01DX001 (ip), vehicle: carboxymethylcellulose (CMC)): 322 % of control
- T/C (dose: 30.0 mg/kg/injection, schedule: Q02DX008 (ip), vehicle: other): 153 % of control and 256 % of control
- T/C (dose: 32.0 mg/kg/injection, schedule: Q## X032 (ip), vehicle: other): 105 % of control
- T/C (dose: 36.0 mg/kg/injection, schedule: Q01DX001 (ip), vehicle: other): 529 % of control
- T/C (dose: 40.0 mg/kg/injection, schedule: Q## X004 (ip), vehicle: other): 209 % of control and 600 % of control
- T/C (dose: 41.0 mg/kg/injection, schedule: Q## X001 (oral), vehicle: other): 383 % of control
- T/C (dose: 45.0 mg/kg/injection, schedule: Q01DX001 (ip), vehicle: carboxymethylcellulose (CMC)): 344 % of control
- T/C (dose: 48.0 mg/kg/injection, schedule: Q## X032 (ip), vehicle: other): 114 % of control and 120 % of control
- T/C (dose: 50.0 mg/kg/injection, schedule: Q01DX001 (oral), vehicle: carboxymethylcellulose (CMC)): 716 % of control
- T/C (dose: 50.0 mg/kg/injection, schedule: Q01DX001 (sc), vehicle: carboxymethylcellulose (CMC)): 733 % of control
- T/C (dose: 50.0 mg/kg/injection, schedule: Q01DX005 (oral), vehicle: carboxymethylcellulose (CMC)): 200 % of control
- T/C (dose: 50.0 mg/kg/injection, schedule: Q04DX004 (ip), vehicle: carboxymethylcellulose (CMC)): 183 % of control
- T/C (dose: 50.0 mg/kg/injection, schedule: Q04DX004 (oral), vehicle: carboxymethylcellulose (CMC)): 205 % of control
- T/C (dose: 50.0 mg/kg/injection, schedule: Q## X006 (ip), vehicle: carboxymethylcellulose (CMC)): 733 % of control
- T/C (dose: 50.0 mg/kg/injection, schedule: Q## X006 (oral), vehicle: carboxymethylcellulose (CMC)): 116 % of control
- T/C (dose: 54.0 mg/kg/injection, schedule: Q01DX001 (ip), vehicle: carboxymethylcellulose (CMC)): 282 % of control
- T/C (dose: 54.0 mg/kg/injection, schedule: Q01DX001 (oral), vehicle: other): 352 % of control
- T/C (dose: 54.0 mg/kg/injection, schedule: Q## X001 (ip), vehicle: other): 421 % of control
- T/C (dose: 54.0 mg/kg/injection, schedule: Q## X001 (oral), vehicle: other): 226 % of control
- T/C (dose: 60.0 mg/kg/injection, schedule: Q## X004 (ip), vehicle: other): 200 % of control
- T/C (dose: 67.0 mg/kg/injection, schedule: Q01DX001 (ip), vehicle: carboxymethylcellulose (CMC)): 289 % of control
- T/C (dose: 100.0 mg/kg/injection, schedule: Q01DX001 (oral), vehicle: carboxymethylcellulose (CMC)): 166 % of control and 244 % of control
- T/C (dose: 100.0 mg/kg/injection, schedule: Q04DX004 (oral), vehicle: carboxymethylcellulose (CMC)): 122 % of control
- T/C (dose: 200.0 mg/kg/injection, schedule: Q01DX001 (oral), vehicle: carboxymethylcellulose (CMC)): 155 % of control

SMILES: CCCCCCCCCCCCNC(=O)C[n+]1cccc(C(=O)N(CC)CC)c1
- T/C (dose: 12.5 mg/kg/injection, schedule: Q04DX003 (ip), vehicle: saline): 92 % of control
- T/C (dose: 25.0 mg/kg/injection, schedule: Q04DX003 (ip), vehicle: saline): 97 % of control
- T/C (dose: 50.0 mg/kg/injection, schedule: Q04DX003 (ip), vehicle: saline): 97 % of control
